In US20220290111A1, “NUCLEIC ACIDS, PROTEINS AND PROCESSES FOR PRODUCING AMIDES” (Leibniz-Institut für Pflanzenbiochemie, priority 2019, published 2022):
Blank lines part the entries; values can stand above or below the molecule they belong to.

Key:
Assay type in all cases: biochemical, Piper nigrum
recombinant PipSyn2 = assay: in vitro enzyme assay of amide formation from CoA-ester and amine, PipSyn2; settings: for relative activity, 3,4-methylenedioxycinnamoyl-CoA / relative activity, hexanoyl-CoA / relative activity, myristoyl-CoA / relative activity, piperoyl-CoA: PipSyn2; for relative activity, 3,4-methylenedioxycinnamoyl-CoA: CoA-ester 3,4-methylenedioxycinnamoyl-CoA; for relative activity, 3,4-methylenedioxycinnamoyl-CoA / relative activity, hexanoyl-CoA / relative activity, myristoyl-CoA: 100% = 2 nkat/mg PipSyn2 with piperoyl-CoA and piperidine; for relative activity, 3,4-methylenedioxycinnamoyl-CoA / relative activity, piperoyl-CoA: UV quantification; for relative activity, hexanoyl-CoA: CoA-ester hexanoyl-CoA; for relative activity, hexanoyl-CoA / relative activity, myristoyl-CoA: quantification by mass detection; for relative activity, myristoyl-CoA: CoA-ester myristoyl-CoA; for relative activity, piperoyl-CoA: CoA-ester piperoyl-CoA, 100% = 2 nkat/mg PipSyn2 with piperidine, assay as Example 3
Experimental: Enzyme activity test with regard to piperine formation in case of PipSynthase 2.
(§1) A standard enzyme assay contains:
(§2) 10 μl enzyme solution in 30 mM Tris/HCl buffer pH 8.0 (10% glycerol, 1 mM DTT)
(§3) 1 μg-5 μg protein, amount determined according to Bradford
(§4) 10 μl piperidine, 100 mM (in water) 10 μl 5 mM DTT in water 10 μl piperoyl-CoA (PipCoA) 2.5 mM in 25% DMSO/75% water • All reagents (except PipCoA) were mixed in Eppendorf tubes and incubated in a standard (Eppendorf) incubator set at 30° C. Reagents were pre-equilibrated for 1 min to this temperature. • Assay start: addition of 10 μl PipCoA 2.5 mM in 25% DMSO/75% water to a final concentration of 500 μM PipCoA. • Assay stop after 5 min addition of 10 μl stop solution such as 1% formic acid/50% acetonitrile
(§5) Mix by vortex, incubate on ice for 5 minutes and centrifugation for 1 min at 20,000 g to precipitate any debris or insoluble material e.g. residual protein.
(§6) Remove 50 μl of supernatant for analysis of products (amides) by LC-MS. Injected to an RP-HPLC column are 10 μl (out of 50 μl). • Product formation is recorded via UV/PDA (photodiode array) detector and LC-MS and simultaneously. • Identification of piperine was achieved by use of a commercial standard and by LC-MS detection of calculated product masses at m/z 286 and UV-detection at 340 nm. • Quantification of product formation was achieved by a standard graph of piperine from 0.1-100 μM (commercial standard, Sigma) and recorded and calculated intensities of mass (peak area) and/or UV-peak area. • Identification and separation of piperine was according to a corresponding standard and a mass signal of m/z 286.1 in pos. mode and its corresponding absorbance at λmax-340 nm.
(§7) Quantification was performed based on a commercially available piperine standard. The peak area of the peak due to piperine in the LC trace was determined. Peaks due to possible isomerization products of piperine were neglected for the determination of enzyme activity of piperine formation. […] Before calculating enzyme activity in terms of nkat (nmole of piperine formed per second), the amount of non-enzymatically formed piperine is subtracted from the amount determined in the presence of protein.
(§8) Protein amounts were determined photometrically by the Bradford assay of combining a defined volume, preferentially 10 μl of the (partly) purified PipSyn1 and PipSyn2 enzyme and 990 μl of Bradford reagent, and calculating the resulting absorbance at λ=595 nm based on a standard curve made with a serial dilution of commercially available Bovine Serum Albumin fraction V in water.
(§9) This Example provides in Table 1 substrates which were tested for enzyme activity with both enzymes. Activity data were calculated from the UV-(PDA) area in the range of 320-370 nm. The data are supported by LC-MS measurements of corresponding m/z values recorded in positive ionization mode and based on calculated expected masses. Mass accuracy of Waters QDA-detector is +/−0.2 Dalton. Contrary to the procedure of Example 3, for the determination of the activity of the reaction of piperoyl-CoA and piperidine as substrates, the sum of all peaks in the LC trace due to species having calculated m/z values of the expected products was used for quantification of product, assuming the same ionization efficiency in positive ionization mode as in case of piperine for all molecule species.

PipSyn1 [1] = assay: in vitro enzyme assay of amide formation from CoA-ester and amine, PipSyn1; settings: 100% = 2 nkat/mg PipSyn2 with piperoyl-CoA and piperidine, UV quantification; for relative activity, 3,4-methylenedioxycinnamoyl-CoA: CoA-ester 3,4-methylenedioxycinnamoyl-CoA; for relative activity, benzoyl-CoA: CoA-ester benzoyl-CoA; for relative activity, piperoyl-CoA: CoA-ester piperoyl-CoA
Experimental: Standard assays are routine for a person of average skill in the art.
as §1, §2, §3, §4, §5, §6, §7, §8, §9

PipSyn1 [2] = assay: as above; settings: 100% = 2 nkat/mg PipSyn2 with piperoyl-CoA and piperidine, quantification by mass detection; for relative activity, hexanoyl-CoA: CoA-ester hexanoyl-CoA; for relative activity, myristoyl-CoA: CoA-ester myristoyl-CoA

Molecule: C1CCNC1 [pyrrolidine]
relative activity, 3,4-methylenedioxycinnamoyl-CoA (recombinant PipSyn2): 3%
relative activity, hexanoyl-CoA (recombinant PipSyn2): 60%
relative activity, myristoyl-CoA (recombinant PipSyn2): <1%
relative activity, piperoyl-CoA (recombinant PipSyn2): 34%
relative activity, 3,4-methylenedioxycinnamoyl-CoA (PipSyn1 [1]): 186%
relative activity, benzoyl-CoA (PipSyn1 [1]): 1%
relative activity, piperoyl-CoA (PipSyn1 [1]): 77%
relative activity, hexanoyl-CoA (PipSyn1 [2]): 300%
relative activity, myristoyl-CoA (PipSyn1 [2]): 3%

Molecule: NCCCCCCCN [1,7-diaminoheptane]
relative activity, piperoyl-CoA (recombinant PipSyn2): 2%
relative activity, 3,4-methylenedioxycinnamoyl-CoA (PipSyn1 [1]): 104%
relative activity, benzoyl-CoA (PipSyn1 [1]): 2%
relative activity, piperoyl-CoA (PipSyn1 [1]): 26%

Molecule: C1CCNCC1 [piperidine]
relative activity, 3,4-methylenedioxycinnamoyl-CoA (recombinant PipSyn2): 38%
relative activity, hexanoyl-CoA (recombinant PipSyn2): 12%
relative activity, myristoyl-CoA (recombinant PipSyn2): 10%
relative activity, piperoyl-CoA (recombinant PipSyn2): 100%
relative activity, 3,4-methylenedioxycinnamoyl-CoA (PipSyn1 [1]): 184%
relative activity, benzoyl-CoA (PipSyn1 [1]): 7%
relative activity, piperoyl-CoA (PipSyn1 [1]): 117%
relative activity, hexanoyl-CoA (PipSyn1 [2]): 23%
relative activity, myristoyl-CoA (PipSyn1 [2]): 10%

Molecule: NCCc1ccc(O)c(O)c1 [dopamine]
relative activity, 3,4-methylenedioxycinnamoyl-CoA (PipSyn1 [1]): 7%
relative activity, piperoyl-CoA (PipSyn1 [1]): 2%

B1: PipSyn2: recombinant His-tagged piperine synthase from Piper nigrum, amino acid sequence SEQ ID NO: 4, expressed in E. coli (protein, listed as Piper nigrum)
chain: MAPSSQLEFNVVRKQPELLPPAEPTPFEWKELSDIDDQDGLRLHISGFFIYPPSTMSNVGRDNVARDIRLGLSKAMVFYYPLAGRIREGPNRKLSVECTGEGIMYCEADADVRLEQFGDIGALSMPFPFMDKVMFETVDDGILGTPLMYFQSTRFICGGIVIAGCYNHAIADGLGFYMFMAAAAQLARGAASPTPLPVWQRERLLSRVPPRVTFIHHEYIHDTPKTETANPLDNEPWPLHSIFFTRVDVAALRAQLPGHLRKSATSFEIISACLWRCRTAALRFAPDELSRLIIAVNARTKFGPPLPQGYYGNSIMLPMVVSEAGKLVLSGLGYAVELVIEAKGKVTEEYVKSVADYLVLNGRPHYVVTNTYLVSDLRQLVEMSKFDWGWGKPAYVGPADVGENAISFLATLKNGEEEGVVVPIRLPESAVGRFKSEVSKMVSFGCLEDVKPNRDGYLSRM
modifications: His tag
catalytic activity taken as 100% (recombinant PipSyn2; recombinant PipSyn2 with piperoyl-CoA and piperidine as substrates): 2 nkat/mg

Other lines, results leading:

relative activity, hexanoyl-CoA (recombinant PipSyn2): <1%
relative activity, 3,4-methylenedioxycinnamoyl-CoA (PipSyn1 [1]): 10%
relative activity, piperoyl-CoA (PipSyn1 [1]): 2%
relative activity, hexanoyl-CoA (PipSyn1 [2]): 2%
Molecule: COc1cc(CN)ccc1O [vanillylamine]

relative activity, 3,4-methylenedioxycinnamoyl-CoA (recombinant PipSyn2): 2%
relative activity, myristoyl-CoA (recombinant PipSyn2): 15%
relative activity, piperoyl-CoA (recombinant PipSyn2): 16%
relative activity, 3,4-methylenedioxycinnamoyl-CoA (PipSyn1 [1]): 173%
relative activity, benzoyl-CoA (PipSyn1 [1]): 6%
relative activity, piperoyl-CoA (PipSyn1 [1]): 66%
relative activity, myristoyl-CoA (PipSyn1 [2]): 20%
Molecule: CC(C)CN [isobutylamine]

relative activity, 3,4-methylenedioxycinnamoyl-CoA (recombinant PipSyn2): 7%
relative activity, piperoyl-CoA (recombinant PipSyn2): 36%
relative activity, 3,4-methylenedioxycinnamoyl-CoA (PipSyn1 [1]): 6%
relative activity, piperoyl-CoA (PipSyn1 [1]): 17%
Molecule: NCC1CCNCC1 [4-aminomethylpiperidine]
